Measured values reported in ChEMBL document CHEMBL4602687, “Dual Binding to Orthosteric and Allosteric Sites Enhances the Anticancer Activity of a TRAP1-Targeting Drug” (J Med Chem, 2020).
Positions count from the first letter of the chain named. Activity calls are given as the source filed them. No cut-off for these calls is given here.

Columns and labels:
[1] = tested on: T1, Heat shock protein 75 kDa, mitochondrial (Homo sapiens), Q12931 [E115K,R114E,E403K]; assay: Stimulation of recombinant […] human TRAP1 E115K/R114E/E403K mutant ATPase activity expressed in Escherichia coli BL21 (DE3) up to 20 uM preincubated for 0.5 hrs followed by ATP addition and measured after 3 hrs by PiColorLock Gold reagent based colorimetric assay
T1 sequence (whole entry): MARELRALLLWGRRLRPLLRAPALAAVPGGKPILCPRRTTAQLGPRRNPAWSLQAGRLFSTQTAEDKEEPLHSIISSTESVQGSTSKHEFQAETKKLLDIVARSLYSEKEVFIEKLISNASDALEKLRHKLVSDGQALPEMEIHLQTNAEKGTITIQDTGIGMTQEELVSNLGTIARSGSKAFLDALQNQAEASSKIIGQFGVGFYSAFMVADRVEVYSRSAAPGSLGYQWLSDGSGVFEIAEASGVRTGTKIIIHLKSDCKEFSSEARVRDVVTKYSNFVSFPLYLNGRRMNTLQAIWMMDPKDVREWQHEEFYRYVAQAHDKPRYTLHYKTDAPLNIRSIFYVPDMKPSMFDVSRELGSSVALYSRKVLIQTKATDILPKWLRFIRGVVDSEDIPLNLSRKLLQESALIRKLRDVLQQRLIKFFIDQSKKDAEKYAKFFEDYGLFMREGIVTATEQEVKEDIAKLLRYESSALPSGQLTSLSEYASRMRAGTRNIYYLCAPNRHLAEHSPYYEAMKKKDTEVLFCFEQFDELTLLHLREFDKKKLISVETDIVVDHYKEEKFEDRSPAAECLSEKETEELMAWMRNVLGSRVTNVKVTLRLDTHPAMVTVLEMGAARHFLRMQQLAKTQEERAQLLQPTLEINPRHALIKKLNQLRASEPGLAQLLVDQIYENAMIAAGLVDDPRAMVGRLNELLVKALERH

NCI-H460 = assay: Cytotoxicity against human NCI-H460 cells assessed as reduction in cell viability up to 3 uM measured after 24 hrs by MTT assay; type: functional, cell-based
Mus musculus = assay: In vivo inhibition of TRAP1 in nude mouse xenografted with human NCI-H460 cells assessed as increase in SIRT3 degradation at 5 mg/kg, ip administered daily by Western blot analysis; type: functional, organism-based
[2] = biological target: T2, Heat shock protein 75 kDa, mitochondrial (Homo sapiens) (UniProt Q12931); assay: Inhibition of TRAP1 in human PC3 cells assessed as loss of mitochondrial membrane potential at 10 uM measured after 2 hrs by TMRM dye based flow cytometry; type: cell-based; details: PC-3
T2 sequence (whole entry): T1 sequence (whole entry) with E114R, K115E, K403E

[3] = tested on: T3, Heat shock protein 75 kDa, mitochondrial (Homo sapiens), Q12931 [E403K]; assay: Inhibition of recombinant wild-type human TRAP1 E403K mutant ATPase activity expressed in Escherichia coli BL21 (DE3) up to 20 uM preincubated for 0.5 hrs followed by ATP addition and measured after 3 hrs by PiColorLock Gold reagent based colorimetric assay
T3 sequence (whole entry): T1 sequence (whole entry) with E114R, K115E

- Activity [1]: inactive
- inhibition [2]: Active
- inhibition [3]: Active
SMILES: Nc1ncnc2c1nc(Sc1cc3c(cc1I)OCO3)n2CCCCCCCCCC[P+](c1ccccc1)(c1ccccc1)c1ccccc1
- Activity (NCI-H460): Active
- inhibition (Mus musculus): Active
